Reference: the supplement of paper PMC11061612

Experiments:
Test in all cases: combination Emax (second highest fraction inhibited in the dose matrix, 72 h); higher = more inhibition; extreme values may be limits of the assay
[1] = tested on: MOG-G-UVW (Low Grade Glioma)
Procedure, shortened: (§1)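 Cell lines grown in DMEM/F12 or RPMI with 10% FBS were plated in 1536-well plates and held 24 hours at 37°C, 5% CO2 before 72 hours of exposure to two-drug dose matrices, with DMSO typically at 0.2%. CellTiter-Glo 2.0 luminescence gave viability, which was converted to inhibition. Vehicle wells were set to 0 and blank wells to 1. Combination Emax is the second-highest inhibition in the matrix, and Bliss excess is the observed combination effect minus the expected EA + EB − EA·EB, where EA and EB are the single-agent effects.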

[2] = tested on: SKN (Other Solid Carcinomas)
Procedure, shortened: as §1

[3] = tested on: SW872 (Other Solid Carcinomas)
Procedure, shortened: as §1

[4] = tested on: LC-1-sq (Squamous Cell Lung Carcinoma)
Procedure, shortened: as §1

| SMILES | combination Emax [1] | combination Emax [2] | combination Emax [3] | combination Emax [4] |
| --- | --- | --- | --- | --- |
| CC1(C)CCC(CN2CCN(c3ccc(C(=O)NS(=O)(=O)c4ccc(NCC5CCOCC5)c([N+](=O)[O-])c4)c(Oc4cnc5[nH]ccc5c4)c3)CC2)=C(c2ccc(Cl)cc2)C1 [Venetoclax] + CN(C)CCCOc1ccc(-c2ccc3ncc4c(c3c2)n(C2CCOCC2)c(=O)n4C)cn1 [AZD0156] (first compound max 1 µM, 7x7, partner max 1 µM) | 0.726 | 0.235 | 0.172 | 0.192 |
| Cc1c2c(nn1C)CSCc1cc(n(C)n1)CSc1cc(c3ccccc3c1)OCCCc1c(C(=O)O)n(C)c3c-2c(Cl)ccc13 [AZD5991] + CC1(C)CCC(CN2CCN(c3ccc(C(=O)NS(=O)(=O)c4ccc(NCC5CCOCC5)c([N+](=O)[O-])c4)c(Oc4cnc5[nH]ccc5c4)c3)CC2)=C(c2ccc(Cl)cc2)C1 [Venetoclax] (first compound max 1 µM, 7x7, partner max 1 µM) | 0.257 | 0.177 | 0.312 | 0.322 |
| NC1(C(=O)N[C@@H](CCO)c2ccc(Cl)cc2)CCN(c2ncnc3[nH]ccc23)CC1 [Capivasertib] + CC(=O)c1c(C)c2cnc(Nc3ccc(N4CCNCC4)cn3)nc2n(C2CCCC2)c1=O [Palbociclib] (first compound max 10 µM, 7x7, partner max 10 µM) | 0.727 | 0.639 | 0.413 | 0.206 |
| CS(=O)(=O)CCNCc1ccc(-c2ccc3ncnc(Nc4ccc(OCc5cccc(F)c5)c(Cl)c4)c3c2)o1 [Lapatinib] + C[C@@H](Oc1cc(-c2cnn(C3CCNCC3)c2)cnc1N)c1c(Cl)ccc(F)c1Cl [Crizotinib] (first compound max 10 µM, 7x7, partner max 10 µM) | 0.842 | 0.743 | 0.496 | 0.931 |
| CN(C)CCCOc1ccc(-c2ccc3ncc4c(c3c2)n(C2CCOCC2)c(=O)n4C)cn1 [AZD0156] + CCN(CCO)CCCOc1ccc2c(Nc3cc(CC(=O)Nc4cccc(F)c4)[nH]n3)ncnc2c1 [AZD2811] (first compound max 1 µM, 7x7, partner max 1 µM) | 0.615 | 0.042 | 0.0742 | 0.257 |
| CC(=O)c1c(C)c2cnc(Nc3ccc(N4CCNCC4)cn3)nc2n(C2CCCC2)c1=O [Palbociclib] + Cc1c2c(nn1C)CSCc1cc(n(C)n1)CSc1cc(c3ccccc3c1)OCCCc1c(C(=O)O)n(C)c3c-2c(Cl)ccc13 [AZD5991] (first compound max 10 µM, 7x7, partner max 1 µM) | 0.526 | 0.385 | 0.228 | 0.241 |
| CN(C)CCCOc1ccc(-c2ccc3ncc4c(c3c2)n(C2CCOCC2)c(=O)n4C)cn1 [AZD0156] + O=C(c1cc(Cc2n[nH]c(=O)c3ccccc23)ccc1F)N1CCN(C(=O)C2CC2)CC1 [Olaparib] (first compound max 3 µM, partner max 3 µM) | 0.632 | 0.188 | 0.272 | 0.184 |
| COc1cccc(OCCCN)c1-c1cc(Nc2cnc(C#N)cn2)n[nH]1 [Prexasertib] + Cc1cc2ncnn2cc1Nc1ncc2c(n1)n(C1CCOCC1)c(=O)n2C [AZD7648] (first compound max 1 µM, 7x7, partner max 10 µM) | 0.904 | 0.425 | 0.867 | 0.944 |
| NC1(C(=O)N[C@@H](CCO)c2ccc(Cl)cc2)CCN(c2ncnc3[nH]ccc23)CC1 [Capivasertib] + CCN(CCO)CCCOc1ccc2c(Nc3cc(CC(=O)Nc4cccc(F)c4)[nH]n3)ncnc2c1 [AZD2811] (first compound max 10 µM, 7x7, partner max 1 µM) | 0.733 | 0.555 | 0.336 | 0.322 |
| NC1(C(=O)N[C@@H](CCO)c2ccc(Cl)cc2)CCN(c2ncnc3[nH]ccc23)CC1 [Capivasertib] + C[C@@H]1COCCN1C2=NC(=NC(=C2)C3(CC3)[S@](=N)(=O)C)C4=C5C=CNC5=NC=C4 [AZD6738] (first compound max 10 µM, 7x7, partner max 10 µM) | 0.796 | 0.608 | 0.452 | 0.74 |
| CN(CCO)CC[C@H](CSc1ccccc1)Nc1ccc(S(=O)(=O)NC(=O)c2ccc(N3CCC([C@@H](O)c4ccccc4-c4ccc(Cl)cc4)CC3)cc2)cc1S(=O)(=O)C(F)(F)F [AZD4320] + CN(C)CCCOc1ccc(-c2ccc3ncc4c(c3c2)n(C2CCOCC2)c(=O)n4C)cn1 [AZD0156] (first compound max 1 µM, 7x7, partner max 1 µM) | 0.135 | 0.127 | 0.148 | 0.217 |
| COc1cccc(OCCCN)c1-c1cc(Nc2cnc(C#N)cn2)n[nH]1 [Prexasertib] + O=C(c1cc(Cc2n[nH]c(=O)c3ccccc23)ccc1F)N1CCN(C(=O)C2CC2)CC1 [Olaparib] (first compound max 1 µM, 7x7, partner max 10 µM) | 0.926 | 0.439 | 0.937 | 0.956 |
| COc1cccc(OCCCN)c1-c1cc(Nc2cnc(C#N)cn2)n[nH]1 [Prexasertib] + C[C@@H]1COCCN1C2=NC(=NC(=C2)C3(CC3)[S@](=N)(=O)C)C4=C5C=CNC5=NC=C4 [AZD6738] (first compound max 1 µM, 7x7, partner max 10 µM) | 0.917 | 0.465 | 0.884 | 0.965 |
